Experiments:
SHR-SP isolated aorta = test: vasoactivity of SHR-SP isolated aorta (ND, HSFD and after chronic treatment); set-up: species or system rat
Protocol: In separate studies, endothelial function was assessed following chronic (7 week) BAY 60-4552 or GSK2181236A treatment in SHR-SP on HSFD. SHR-SP fed either normal or HSFD served as controls. Rats were anesthetized and thoracic aorta were isolated and treated with KCl and phenylephrine as described above. Cumulative concentration-response curves to phenylephrine were obtained by adding 0.5 log unit increments (1 nM to 3 μM). Following several washes with KHB, each vessel was contracted to equilibrium with 0.3 μM phenylephrine and tone was reversed by adding cumulative amounts of carbachol at 0.5 log unit intervals (10 nM to 30 μM). Following several KHB washes, the tissues were again contracted to equilibrium with 0.3 μM phenylephrine and tone was reversed by adding cumulative amounts of SNP at 0.5 log unit intervals (0.1 nM to 3 μM). In separate tissues from both the normal and HSFD SHR-SP control groups, the direct vasodilatory effects of BAY 60-4552 and GSK2181236A were investigated. Contractile tone induced by 0.3 μM phenylephrine was reversed by adding cumulative concentrations of BAY 60-4552 or GSK2181236A to the tissue baths at log increments (0.1 nM to 10 μM).

Sprague Dawley rats = test: myocardial ischemia/reperfusion injury; format: in vivo, rat; conditions: for circulating levels of cardiac troponin I (cTnI) / infarct size as a percentage of the area at risk: acute p.o. 2 h prior to ischemia, GSK2181236A 0.1 and 1.0 mg/kg, BAY 60-4552 0.3 and 3 mg/kg, 24 h reperfusion
Protocol: This study was performed at CV Dynamics, Inc. (Newark, NJ, USA). Male SD rats were obtained from Charles River Laboratories, Inc. (Kingston, NY, USA). At 2 months of age, rats were pre-medicated with atropine (0.04 mg/kg IM) then anesthetized with a loading dose of pentobarbital sodium (65 mg/kg IP). A supplemental dose of pentobarbital sodium (16.3 mg/kg IP) was administered 30–40 min after the initial anesthesia. Marcaine (0.025–0.05 mg/rat IM) was administered locally for pain control, and anesthetized rats were subjected to a thoracotomy at the fourth intercostal space. The left descending coronary artery was occluded using a 5-0 silk snare for 30 min, followed by reperfusion for 24 h. The coronary occlusion and reperfusion were verified by visual inspection (color change of myocardium from pale to pink) and by EKG monitoring [ST elevation and widening of the QRS; Gould BioTACH ECG module (Valley View, OH, USA) with a Tektronix TDS 220 monitor (Beaverton, OR, USA)]. A 2% lidocaine solution (2–3 mg/kg) was dripped directly onto the heart as needed for arrhythmia control during ischemia, and procainamide (12.5 mg/kg IP) was administered 15 min prior to reperfusion.
Rats were orally gavaged with vehicle (0.5% HPMC, 5% DMSO, and 0.1% Tween 80; 10 mL/kg; n = 14), GSK2181236A (0.1 or 1.0 mg/kg; n = 11–14), or BAY 60-4552 (0.3 or 3.0 mg/kg; n = 10–12) 2 h prior to ischemia. Blood was collected at the initiation of ischemia and after 24 h reperfusion. Plasma was obtained for analysis of compound concentrations and levels of cardiac Troponin I (cTnI), a circulating biomarker of cardiac injury. Plasma concentrations of cTnI were determined using a commercially available ELISA (catalog #2010-2-HSP, Life Diagnostics, West Chester, PA, USA) according to the manufacturer’s instructions. Plasma compound concentrations were determined by LC/MS/MS (API 5000 triple quadrupole mass spectrometer, ABSciex, Foster City, CA, USA; Prominence liquid chromatographic system, Shimadzu, Columbia, MD, USA). Rats were anesthetized with a mixture of ketamine and xylazine (35 and 5 mg/kg, IM) and euthanized via exsanguination. Hearts were excised and perfused with 1% Evans blue dye in saline then perfused-fixed with 10% neutral buffered formalin (∼90 mmHg perfusion pressure). Hearts were sliced on the short axis from apex to base at 1–2 mm intervals, and the ischemic area (area at risk) was evaluated using Image Pro-Plus (Media Cybernetics, Inc., Bethesda, MD, USA). Fresh heart slices were stained with 1% triphenyltetrazolium and evaluated using Image Pro-Plus for determination of infarct size.

SHR-SP cardiac tissue = test: cardiac gene expression in HSFD SHR-SP after chronic treatment; format: in vivo, rat
Protocol: On week 8, isoflurane anesthetized rats were euthanized via exsanguination. The thoracic aorta was excised for assessment of endothelial function as described below. Hearts were snap-frozen in liquid nitrogen and stored at −80°C for later analysis of gene expression changes associated with cardiac hypertrophy and fibrosis (see below for procedure details).
Cardiac gene expression was analyzed following chronic (7 week) BAY 60-4552 or GSK2181236A treatment in HSFD SHR-SP. Hearts were homogenized in Trizol and RNA was extracted using the RNeasy Plus Mini kit protocol (Qiagen, Valencia, CA, USA) with a 40 μL elution volume. RNA was quantified using a Nanodrop Spectrophotometer ND-1000 (Thermo Fisher Scientific, Wilmington, DE, USA) and converted to cDNA using the High Capacity cDNA Reverse Transcription Kit (Applied Biosystems, Carlsbad, CA, USA). Taqman assays were performed using a 384-well plate format with individual primer-probes and Taqman Universal PCR Master Mix (Applied Biosystems) and run on the 7900 HT Fast Real-Time PCR System (Applied Biosystems). SDS 2.3 software (Applied Biosystems) was used to obtain raw Ct values with manual threshold set at 0.10. Array Studio software (version 3.6.2; OmicSoft Corporation, Cary, NC, USA) was used to normalize gene expression data, by analysis of covariance, to the housekeeper genes β-2-microglobulin (B2m) and peptidyl-prolyl cis-trans isomerase A (Ppia). No outliers were detected by means of principal component analysis.
The following genes were analyzed: α-skeletal actin (Acta1), type 1 collagen-alpha 1 (Col1a1), type 3 collagen-alpha 1 (Col3a1), connective tissue growth factor (CTGF; Ctgf), matrix metalloproteinase 2 (MMP2; Mmp2), matrix metalloproteinase 9 (MMP9; Mmp9), α-myosin heavy chain (α-MHC; Myh6), β-myosin heavy chain (β-MHC; Myh7); atrial natriuretic factor (ANF; Nppa), brain-type natriuretic peptide (BNP; Nppb), cGMP-specific phosphodiesterase 5A (PDE5A; Pde5a), type 2 cGMP-dependent protein kinase (PKG2; Prkg2), and transforming growth factor beta 1 (TGF-β1; Tgfb1).

[1] = HSFD + 0.1 mg/kg chronic treatment
[2] = HSFD + 1 mg/kg chronic treatment
[3] = HSFD + 0.3 mg/kg chronic treatment
[4] = HSFD + 3 mg/kg chronic treatment

## Cc1cc(-c2ccc(OC(F)(F)F)cc2)ccc1COc1ccccc1-c1cccc(-n2ncc(C(=O)O)c2C(F)(F)F)n1 [GSK2181236A, 1-(6-{2-[({3-methyl-4′-[(trifluoromethyl)oxy]-4-biphenylyl}methyl)oxy]phenyl}-2-pyridinyl)-5-(trifluoromethyl)-1H-pyrazole-4-carboxylic acid]
SHR-SP isolated aorta; [1]
  Carbachol Emax in aorta of chronically treated rats: 48 ± 14 % reversal of PE tone
  Phenylephrine Emax in aorta of chronically treated rats: 93 ± 8 % KCl
  Sodium nitroprusside Emax in aorta of chronically treated rats: 111 ± 3 % reversal of PE tone
SHR-SP isolated aorta; [2]
  Carbachol Emax in aorta of chronically treated rats: 59 ± 4 % reversal of PE tone
  Phenylephrine Emax in aorta of chronically treated rats: 91 ± 8 % KCl
  Sodium nitroprusside Emax in aorta of chronically treated rats: 100 ± 2 % reversal of PE tone
Sprague Dawley rats; 0.1 mg/kg p.o., due to anesthesia
  mortality rate: 1 of 15
Sprague Dawley rats; 1 mg/kg p.o., arrhythmia during occlusion and unknown cause during reperfusion
  mortality rate: 2 of 13
Sprague Dawley rats
  circulating levels of cardiac troponin I (cTnI): did not significantly alter
  infarct size as a percentage of the area at risk: did not significantly alter
SHR-SP cardiac tissue; 1.0 mg/kg/day, 7 weeks
  attenuation of HSFD-induced increase of ANF expression: 1.4 fold
  attenuation of HSFD-induced increase of α-skeletal actin expression: 1.7 fold

## COC(=O)Nc1c(N)nc(-c2nn(Cc3ccccc3F)c3ncccc23)nc1N [BAY 60-4552]
SHR-SP isolated aorta; [3]
  Carbachol Emax in aorta of chronically treated rats: 54 ± 6 % reversal of PE tone
  Phenylephrine Emax in aorta of chronically treated rats: 88 ± 6 % KCl
  Sodium nitroprusside Emax in aorta of chronically treated rats: 98 ± 5 % reversal of PE tone
SHR-SP isolated aorta; [4]
  Carbachol Emax in aorta of chronically treated rats: 67 ± 6 % reversal of PE tone
  Phenylephrine Emax in aorta of chronically treated rats: 89 ± 7 % KCl
  Sodium nitroprusside Emax in aorta of chronically treated rats: 112 ± 3 % reversal of PE tone
Sprague Dawley rats; 0.3 mg/kg p.o., arrhythmia and trauma during occlusion
  mortality rate: 2 of 12
Sprague Dawley rats; 3 mg/kg p.o., cardiac puncture and trauma
  mortality rate: 2 of 14
Sprague Dawley rats
  circulating levels of cardiac troponin I (cTnI): did not significantly alter
  infarct size as a percentage of the area at risk: did not significantly alter
SHR-SP cardiac tissue; 0.3 mg/kg/day, 7 weeks
  attenuation of HSFD-induced increase of α-skeletal actin expression: 1.3 fold
SHR-SP cardiac tissue; 3.0 mg/kg/day, 7 weeks
  attenuation of HSFD-induced increase of α-skeletal actin expression: 1.4 fold
SHR-SP cardiac tissue; 0.3 and 3.0 mg/kg/day, P > 0.05 vs. HSFD
  attenuation of HSFD-induced increase of ANF expression: non-significant trend
